Reference: patent US5658906A, “Cysteine protease and serine protease inhibitors” (Cephalon, Inc., priority 1996, dated 1997)

Tests used:
Calpain I = molecular target: T1, Calpain I (Homo sapiens, UniProt P07384); experiment: Inhibition and rate of inactivation of calpain I (Succ-Leu-Tyr-MNA hydrolysis); assay type: biochemical; conditions: mean of three or more independent analyses, corrected for substrate, k2 = kapp(1+[S]/Km), read-out: k2 (second order rate constant of inactivation), A = Calpain I
T1 construct: Calpain I was purified from human red blood cells; from tissue; host or cells: human red blood cells (packed, outdated)
T1 sequence (P07384 1-714): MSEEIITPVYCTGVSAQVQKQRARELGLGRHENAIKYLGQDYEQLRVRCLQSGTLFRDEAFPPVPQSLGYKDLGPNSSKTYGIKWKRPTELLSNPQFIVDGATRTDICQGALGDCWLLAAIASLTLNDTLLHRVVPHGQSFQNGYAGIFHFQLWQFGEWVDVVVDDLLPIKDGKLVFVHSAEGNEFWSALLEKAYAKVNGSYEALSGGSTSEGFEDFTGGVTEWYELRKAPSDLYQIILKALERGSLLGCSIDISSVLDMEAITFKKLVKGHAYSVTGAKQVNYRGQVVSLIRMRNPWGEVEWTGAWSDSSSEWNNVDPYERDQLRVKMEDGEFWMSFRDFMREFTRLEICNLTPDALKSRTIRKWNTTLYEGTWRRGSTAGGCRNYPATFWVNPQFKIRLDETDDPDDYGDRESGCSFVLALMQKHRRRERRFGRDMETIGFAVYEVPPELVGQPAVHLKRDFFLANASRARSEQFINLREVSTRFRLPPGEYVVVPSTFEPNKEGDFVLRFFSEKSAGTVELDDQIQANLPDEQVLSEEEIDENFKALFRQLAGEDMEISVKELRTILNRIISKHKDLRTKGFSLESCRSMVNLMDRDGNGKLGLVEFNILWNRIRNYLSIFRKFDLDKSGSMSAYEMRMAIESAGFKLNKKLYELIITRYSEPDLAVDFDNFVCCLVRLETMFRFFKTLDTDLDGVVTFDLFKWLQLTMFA
T1 sequence (P04632 1-268 partner): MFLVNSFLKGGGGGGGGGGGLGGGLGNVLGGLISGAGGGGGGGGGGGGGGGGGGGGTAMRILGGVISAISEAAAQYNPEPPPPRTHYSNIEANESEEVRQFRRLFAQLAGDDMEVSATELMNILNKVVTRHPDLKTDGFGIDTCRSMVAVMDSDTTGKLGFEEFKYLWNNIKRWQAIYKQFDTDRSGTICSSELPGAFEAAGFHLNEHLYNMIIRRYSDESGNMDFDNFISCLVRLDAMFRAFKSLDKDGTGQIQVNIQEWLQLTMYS
Protocol: To evaluate inhibitory activity of our compounds, stocks (40 times concentrated) of each compound to be tested were prepared in 100% anhydrous dimethyl sulfoxide (DMSO) and 5 μl of each inhibitor preparation was aliquoted into each of three wells of a 96 well plate. Calpain I was purified from human red blood cells using a modification of the method described by Lee, W. J. et al. (Biochem. Internatl. (1990)22(1): 163-171). Briefly, 3 units of packed outdated red blood cells were washed 3× by repeated centrifugation at 500 rpm for 10 minutes through 900 mls of 0.9% NaCl. Cells were lysed in 20 mM Tris/1 mM EDTA/1 mM EGTA/5 mM mercaptoethanol (Buffer A) and centrifuged for 1 hour at 12,000 rpm in a GSA rotor using a Sorval centrifuge. The supernatant was collected and applied to a DEAE-sepharose FF column equilibrated in Buffer A+25 mM NaCl. After washing the column in Buffer A+25 mM NaCl, the bound protein was eluted at 117 ml/hr with a 25 mM to 150 mM NaCl linear gradient in Buffer A collecting 200, 10 mL fractions. Two μl of every fifth fraction was applied to nitrocelluose using a dot blot apparatus and calpain containing fractions identified by Western analysis. For detection of calpain, nitrocellulose sheets were first blocked in 5% Blotto (5% Carnation instant milk/10 mM Tris/[…]150 mM NaCl) for 30 minutes, followed by incubation for 1 hour in antibody directed against Calpain I (rabbit anti-human calpain I polyclonal sera, 1:1000 dilution in 5% Blotto). After three 5 minutes washes in 10 mM Tris/150 mM NaCl/0.05% Tween 20 the nitrocellulose was incubated for 1 hour in secondary alkaline phosphatase conjugated antibody (Biorad Cat#170-6518 1:2000 in 5% Blotto). After three 5 minutes washes in 10 mM Tris/150 mM NaCl/0.05% Tween 20 and 1 wash in 10 mM Tris/150 mM NaCl the nitrocellulose was incubated for up to 2 hours in a colorimetric substrate solution (Biorad Alkaline Phosphatase Substrate conjugate kit, cat#170-6432). The reaction was stopped by washing in water. After fractions containing calpain, and those in between, were pooled, solid ammonium sulfate was added to achieve a 30% solution and the mixture stirred for 1 hour at 4° C. Following collection of the precipitate by centrifugation for 1 hour at 4° C. at 12K rpm in a GSA rotor, the supernatant was collected and brought to 45% in ammonium sulfate. After stirring for 1 hour at 4° C., centrifugation was repeated. The supernatant was discarded and the precipitate resuspended in approximately 7 mls and dialyzed overnight at 4° C. against Buffer A+50 mM NaCl. The sample was then applied to a S300 gel filtration column preequilibrated in Buffer A+50 mM NaCl, washed and eluted at a flow rate of 20 ml/hr, collecting 200, 4 ml fractions. The peak of calpain was determined by assaying aliquots of every fifth fraction for enzyme activity monitored by the hydrolysis of a fluorogenic dipeptide substrate as described below. The peak fractions were pooled and the enzyme preparation used to test compounds for inhibitory activity. As an alternate to enzyme isolated from tissue sources, recombinant human calpain I has also been used to monitor compounds for inhibitory activity.
The foregoing enzyme preparation was diluted into assay buffer (i.e., 50 mM Tris, 50 mM NaCl, 1 mM EDTA, 1 mM EGTA, and 5 mM β-mercaptoethanol, pH 7.5 including 0.2 mM Succ-Leu-Tyr-MNA) and 175 μl aliquoted into the same wells containing the independent inhibitor stocks as well as to positive control wells containing 5 μl DMSO, but no compound. To start the reaction, 20 μl of 50 mM CaCl2 in assay buffer was added to all wells of the plate, excepting three, which were used as background signal baseline controls. Substrate hydrolysis was monitored every 5 minutes for a total of 30 minutes using Flouroskan II (ex=340 nm; em=430 nm). Substrate hydrolysis in the absence of inhibitor was linear for up to 15 minutes. […]

Cathepsin B = molecular target: T2, Cathepsin B (Homo sapiens, UniProt P07858); experiment: Inhibition and rate of inactivation of cathepsin B (Cbz-Phe-Arg-AMC hydrolysis); assay type: biochemical; conditions: pH 6.0, 0.1 mM substrate, read-out: k2 (second order rate constant of inactivation), C = Cathepsin B
T2 construct: purchased Calbiochem 219364
Protocol: Additionally, the order of reagents added to the plate was altered because both enzymes are constitutively active. Following inhibitor addition to the plates appropriate 2× concentrated stock dilutions of the enzyme preparations were made in assay buffer and 100 ul added to each well. The assay was initiated by addition of 100 ul of 2× concentrated stock dilution of substrate in assay buffer. Substrate hydrolysis was monitored using a Fluroskan II (ex=390 nm; em=460 nm).
Inhibition of enzyme activity was calculated as the percent decrease in the rate of substrate hydrolysis in the presence of inhibitor (.upsilon.i) relative to the rate in its absence (.upsilon.o). Comparison between .upsilon.o and .upsilon.i was made within the linear range for substrate hydrolysis. For screening, compounds were tested at 10 μM. Compounds having ≥50% inhibition at 10 μM were considered active. Apparent second order rate constants were determined from analysis of reaction progress curves under pseudo-first order conditions. Each determination represents the mean of three or more independent single cuvette analyses continually monitored via a Perkin-Elmer LS50B spectrofluorimeter. The rate of inhibition of hydrolysis was obtained by fitting the curve to the exponential equation (1):
y=Ae^-k.spsb.obs·t +B (1)
where y (Pt) is the product formed at time t. A and B are constants. A, the amplitude of the reaction, is given by [Po -P.varies. ] and B (=P.varies.) is the maximal product formed when the reaction is […]. This was corrected for the presence of equation (2): […]

[1] = system: calpain I in Molt-4 cells (α-spectrin breakdown products); experiment: Inhibition of calpain activation in intact Molt-4 cells (calpain-generated spectrin breakdown products); assay type: cell-based; conditions: Homo sapiens, calcium and ionophore (ionomycin), read-out: % Inhibition of BDPs (10 μM)
α-chymotrypsin = molecular target: T3, α-chymotrypsin (Bos taurus, UniProt P00766); experiment: Inhibition of the serine protease α-chymotrypsin (Succ-Ala-Ala-Pro-Phe-AMC hydrolysis); assay type: biochemical; conditions: pH 7.5, 0.03 mM substrate
T3 construct: purchased Sigma Chem. Co. C-3142
Protocol: Additionally,because α-chymotrypsin is not a calcium sensitive enzyme and is constituitively active, following addition of inhibitor stocks to the 96 well plates, 100 ul of a 2 fold concentrated stock of enzyme in dilution buffer was first added and the reaction started by addition of 100 ul of a 2 fold concentrated stock of substrate in assay buffer. Substrate hydrolysis was monitored every 5 minutes up to 30 minutes using a Fluoroskan II ([…]).

SMILES	kinact/KI (Calpain I) [M⁻¹ s⁻¹]	kinact/KI (Cathepsin B) [M⁻¹ s⁻¹]	inhibition at 10 µM (α-chymotrypsin) [%]	inhibition at 10 µM [1] [%]
CC(C)C[C@H](NC(=O)[C@H](CC(C)C)NC(=O)OCc1ccccc1)C(=O)COn1nnc2ccccc21 [Example 4, 1-[N-[N-Benzyloxycarbonyl-L-leucyl]-3S-5-methyl-3-amino-2-oxohexyloxy]benzotriazole]	175000	19000	–	57
Cc1cc2nnn(OCC(=O)[C@H](Cc3ccccc3)NC(=O)[C@H](CC(C)C)NC(=O)OCc3ccccc3)c2cc1Cl [Example 11, 1-[N-[N-Benzyloxycarbonyl-L-leucyl]-3S-4-phenyl-3-amino-2-oxobutyloxy]-6'-chloro-5'-methylbenzotriazole]	98000	28000	100	–
Cc1cccc2c1nnn2OCC(=O)[C@H](Cc1ccccc1)NC(=O)[C@H](CC(C)C)NC(=O)OCc1ccccc1 [Example 12, 1-[N-[N-Benzyloxycarbonyl-L-leucyl]-3S-4-phenyl-3-amino-2-oxobutyloxy]-4'-methylbenzotriazole]	46000	–	94	–
CC(C)C[C@H](NC(=O)OCc1ccccc1)C(=O)N[C@@H](Cc1ccccc1)C(=O)COn1nnc2c(F)c(F)c(F)c(F)c21 [Example 16, 1-[N-[N-Benzyloxycarbonyl-L-leucyl]-3S-4-phenyl-3-amino-2-oxybutyloxy]-4',5',6',7'-tetrafluorobenzotriazole]	93000	–	–	64
CC(C)C[C@H](NC(=O)OCc1ccccc1)C(=O)N[C@@H](Cc1ccccc1)C(=O)COn1nnc2ncccc21 [Example 19, 1-[N-[N-Benzyloxycarbonyl-L-leucyl]-3S-4-phenyl-3-amino-2-oxybutyloxy]-(1H)-triazolo[4,5-b]pyridine]	57000	–	–	54
CC(C)CC(CC(=O)C1c2ccccc2Oc2ccccc21)C(=O)N[C@@H](Cc1ccccc1)C(=O)COn1nnc2ccccc21 (stereo partly drawn) [Example 39, 1-[N-[2-(2-Methylpropyl)-1,4-dioxo-4-(xanthen-9-yl)butyl]-3S-3-amino-2-oxo-4-phenylbutyloxy]benzotriazole]	46000	55000	100	–
CC(C)CC(CC(=O)C1c2ccccc2Oc2ccccc21)C(=O)N[C@@H](CC(C)C)C(=O)COn1nnc2ccccc21 (stereo partly shown) [Example 40]	2700	48000	100	–

Continued, in another order:

kinact/KI (Calpain I) [M⁻¹ s⁻¹]	kinact/KI (Cathepsin B) [M⁻¹ s⁻¹]	inhibition at 10 µM (α-chymotrypsin) [%]	SMILES	inhibition at 10 µM [1] [%]
160000	18000	99	CC(C)C[C@H](NC(=O)OCc1ccccc1)C(=O)N[C@@H](Cc1ccccc1)C(=O)COn1nnc2ccc(C(F)(F)F)cc21 [Example 7, 1-[N-[N-Benzyloxycarbonyl-L-leucyl]-3S-4-phenyl-3-amino-2-oxobutyloxy]-6'-trifluoromethylbenzotriazole]	–
101000	–	–	CC(C)C[C@H](NC(=O)OCc1ccccc1)C(=O)N[C@@H](Cc1ccccc1)C(=O)COn1nnc2ccc(Cl)cc21 [Example 8, 1-[N-[N-Benzyloxycarbonyl-L-leucyl]-3S-4-phenyl-3-amino-2-oxybutyloxy]-6'-chlorobenzotriazole]	57
125000	52000	83	COc1ccc2nnn(OCC(=O)[C@H](Cc3ccccc3)NC(=O)[C@H](CC(C)C)NC(=O)OCc3ccccc3)c2c1 [Example 9, 1-[N-[N-Benzyloxycarbonyl-L-leucyl]-3S-4-phenyl-3-amino-2-oxobutyloxy]-6'-methoxybenzotriazole]	–
50000	–	89	CC(C)C[C@H](NC(=O)OCc1ccccc1)C(=O)N[C@@H](Cc1ccccc1)C(=O)COn1nnc2ccc(F)cc21 [Example 10, 1-[N-[N-Benzyloxycarbonyl-L-leucyl]-3S-4-phenyl-3-amino-2-oxobutyloxy]-6'-fluorobenzotriazole]	–
67000	300000	–	CC(C)C[C@H](NC(=O)OCc1ccccc1)C(=O)N[C@@H](Cc1ccccc1)C(=O)COn1nnc2c(F)c(F)ccc21 [Example 25, 1-[N-[N-Benzyloxycarbonyl-L-leucyl]-3S-4-phenyl-3-amino-2-oxybutyloxy]-4',5'-difluorobenzotriazole]	52
